Assay: Inhibition of human constitutive proteasome subunit beta type-1 in human erythrocytes using fluorogenic substrate by […]

| IC50 [µM] | SMILES |
| --- | --- |
| 17 | CCC(C)/C=C(\C)c1cc2c(cn1)C(=O)C1=C(N)C(=O)C(OC)=CC1=C2 (stereo unspecified) |
| > 50 | CCC(C)/C=C(\C)c1cc2c(cn1)C(=O)c1c(cc(OC)c(O)c1O)C2=O (stereo unspecified) |
| 19 | CCC(C)/C=C(\C)C1=Cc2cc3c(c(O)c2CO1)C(=O)C(O)(CC(C)=O)C(OC)=C3 (stereo unspecified) |

Assay: Inhibition of human constitutive proteasome subunit beta type-2 in human erythrocytes using fluorogenic substrate by […]

| IC50 [µM] | SMILES |
| --- | --- |
| 42 | CCC(C)/C=C(\C)c1cc2c(cn1)C(=O)C1=C(N)C(=O)C(OC)=CC1=C2 (stereo unspecified) |
| > 50 | CCC(C)/C=C(\C)c1cc2c(cn1)C(=O)c1c(cc(OC)c(O)c1O)C2=O (stereo unspecified) |
| > 50 | CCC(C)/C=C(\C)C1=Cc2cc3c(c(O)c2CO1)C(=O)C(O)(CC(C)=O)C(OC)=C3 (stereo unspecified) |
